Data published in US20090012056A1, “Quinoline Compounds Capable of Binding the Cb2 and/or the 5-Ht6 Receptor” (GLAXO GROUP LIMITED, priority 2005, published 2009).
Structures can show the parent of a compound that is named as a salt.

Assays:
[1] = target: T1, human cannabinoid CB2 receptor (Homo sapiens, UniProt P34972); test: Cannabinoid CB2 receptor agonist activity in yeast cells expressing the human CB2 receptor (FDGlu fluorescence); assay type: cell-based; conditions: 24 hours at 30° C., read-out: pEC50 at the CB2 receptor (agonist activity) (converted)
T1 construct: expressed in transfected cells; host or cells: Saccharomyces cerevisiae strain MMY23
Description: Yeast (Saccharomyces cerevisiae) cells expressing the human cannabinoid CB2 receptor were generated by integration of an expression cassette into the ura3 chromosomal locus of yeast strain MMY23. This cassette consisted of DNA sequence encoding the human CB2 receptor flanked by the yeast GPD promoter to the 5′ end of CB2 and a yeast transcriptional terminator sequence to the 3′ end of CB2. MMY23 expresses a yeast/mammalian chimeric G-protein alpha subunit in which the C-terminal 5 amino acids of Gpa1 are replaced with the C-terminal 5 amino acids of human Gαi1/23 (as described in Brown et al. (2000), Yeast 16:11-22). Cells were grown at 30° C. in liquid Synthetic Complete (SC) yeast media (Guthrie and Fink (1991), Methods in Enzymology, Vol. 194) lacking uracil, tryptophan, adenine and leucine to late logarithmic phase (approximately 6 OD600/ml).
Agonists were prepared as 10 mM solutions in DMSO. EC50 values (the concentration required to produce 50% maximal response) were estimated using 4 fold dilutions of between 3- and 5-fold (BiomekFX, Beckman) into DMSO. Agonist solutions in DMSO (1% final assay volume) were transferred into black microtitre plates from NUNC Greiner (384-well). Cells were suspended at a density of 0.2 OD600/ml in SC media lacking histidine, uracil, tryptophan, adenine and leucine and supplemented with 10 mM 3-aminotriazole, 0.1M sodium phosphate pH 7.0, and 120 μM fluorescein di-β-D-glucopyranoside (FDGlu). This mixture (50 ul per well) was added to agonist in the assay plates (Multidrop 384, Labsystems). After incubation at 30° C. for 24 hours, fluorescence resulting from degradation of FDGlu to fluorescein due to exoglucanase, an endogenous yeast enzyme produced during agonist-stimulated cell growth, was determined using a fluorescence microtitre plate reader (Tecan Spectrofluor or LJL Analyst excitation wavelength: 485 nm; emission wavelength: 535 nm). Fluorescence was plotted against compound concentration and iteratively curve fitted using a four parameter fit to generate a concentration effect value.
Efficacy (Emax) was calculated from the equation
Emax=Max[compound X]−Min[compound X]/Max[HU210]−Min[HU210]×100% • where Max[compound X] and Min[compound X] are the fitted maximum and minimum respectively from the concentration effect curve for compound X, and Max[HU210] and Min[HU210] are the fitted maximum and minimum respectively from the concentration effect curve for (6aR,10aR)-3-(1,1′-Dimethylheptyl)-6a,7,10,10a-tetrahydro-1-hydroxy-6,6-dimethyl-6H-dibenzo[b,d]pyran-9-methanol (HU210; available from Tocris). Equieffective molar ratio (EMR) values were calculated from the equation
EMR=EC50[compound X]/EC50[HU210] • Where EC50 [compound X] is the EC50 of compound X and EC50 [HU210] is the EC50 of HU210. • pEC50 is the negative log of the EC50.

[2] = target: T2, human cloned 5-HT6 receptors (Homo sapiens, UniProt P50406); test: Cyclase assay (cAMP production in membranes of HeLa 5HT6 cells, antagonism of 5-HT); assay type: biochemical; conditions: cyclase assay with 5-HT at 4xEC50, read-out: fpKi (functional pKi, antagonist potency) (converted)
T2 construct: expressed in transfected cells; host or cells: HeLa cells (membranes)
Procedure: 0.5 μl of test compound in 100% dimethylsulfoxide (DMSO) was added to a white, solid 384 well assay plate (for dose response measurements the top of the concentration range is 7.5 μM final). 10 μl of washed membranes of HeLa 5HT6 cells (for preparation see WO 98/27081) in basic buffer (50 mM HEPES pH 7.4 (KOH), 1 mM MgCl2, 100 mM NaCl, 1 μl/ml 3-isobutyl-1-methylxanthine (IBMX) (Sigma-Aldrich)) was added to all wells followed by 10 μl 2×ATP buffer (100 μl/ml ATP and 1 μl/ml 3-Isobutyl-1-methylxanthine (IBMX) (Sigma-Aldrich)) with 5-HT (at a concentration equivalent to a dose response of 4×EC50). The resultant mixture was then incubated at room temperature for 30-45 minutes to allow cAMP production.
cAMP production was then measured using the DiscoveRx™ HitHunter™ chemiluminescence cAMP assay kit (DiscoveRx Corporation, 42501 Albrae Street, Fremont, Calif. 94538; Product Code: 90-0004L) or any other suitable cAMP measurement assay.
IC50 values were estimated from arbitrary designated unit (ADU) measurements from a Perkin Elmer Viewlux instrument using a four parameter logistic curve fit within EXCEL (Bowen, W. P. and Jerman, J. C. (1995), Nonlinear regression using spreadsheets. Trends in Pharmacol. Sci., 16, 413-417). Functional Ki values were calculated using the method of Cheng, Y. C. and Prussof, W. H. (Biochemical Pharmacol (1973) 22 3099-3108). pIC50 and fpKi are the negative log 10 of the molar IC50 and functional Ki respectively.

T2 sequence (P50406 whole entry): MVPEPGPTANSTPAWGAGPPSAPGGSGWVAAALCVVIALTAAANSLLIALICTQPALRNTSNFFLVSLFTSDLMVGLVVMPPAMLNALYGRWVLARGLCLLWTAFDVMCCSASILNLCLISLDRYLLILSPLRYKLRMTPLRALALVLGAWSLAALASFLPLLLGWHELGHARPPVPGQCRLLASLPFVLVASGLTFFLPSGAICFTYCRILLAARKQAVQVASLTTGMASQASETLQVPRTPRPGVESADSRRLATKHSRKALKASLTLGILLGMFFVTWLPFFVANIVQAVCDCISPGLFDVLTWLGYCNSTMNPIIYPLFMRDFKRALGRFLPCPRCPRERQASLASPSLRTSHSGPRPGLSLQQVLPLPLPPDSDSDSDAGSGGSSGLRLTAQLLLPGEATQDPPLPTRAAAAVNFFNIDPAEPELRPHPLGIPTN
T1 sequence (P34972 whole entry): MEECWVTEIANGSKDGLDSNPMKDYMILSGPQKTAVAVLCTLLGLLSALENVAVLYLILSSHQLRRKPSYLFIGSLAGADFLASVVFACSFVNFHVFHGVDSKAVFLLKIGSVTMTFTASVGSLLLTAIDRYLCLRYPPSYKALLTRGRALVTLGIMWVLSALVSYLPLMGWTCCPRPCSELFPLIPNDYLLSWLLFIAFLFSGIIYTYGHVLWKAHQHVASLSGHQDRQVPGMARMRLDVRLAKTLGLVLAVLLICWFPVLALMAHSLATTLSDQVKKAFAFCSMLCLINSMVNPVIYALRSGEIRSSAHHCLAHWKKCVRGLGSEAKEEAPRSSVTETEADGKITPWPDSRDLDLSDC

Row | SMILES | EC50 [1] [nM] | Ki [2] [nM]
1 | CN(C)Cc1cccc2cc(S(=O)(=O)c3ccccc3)cnc12 [Example 7, N,N-Dimethyl-1-[3-(phenylsulfonyl)quinolin-8-yl]methanamine] | ≤ 10000 | < 100
2 | CC1CCCN1Cc1cccc2cc(S(=O)(=O)c3ccccc3)cnc12 (centres unmarked) [Example 8, 8-[(2-Methylpyrrolidin-1-yl)methyl]-3-(phenylsulfonyl)quinoline] | ≤ 10000 | < 100
3 | CC(C)N(C)C(C)c1cccc2cc(S(=O)(=O)c3ccccc3)cnc12 (centres unmarked) [Example 20, N-Methyl-N-{1-[3-(phenylsulfonyl)quinolin-8-yl]ethyl}propan-2-amine hydrochloride] | < 1000 | < 100
4 | O=S(=O)(c1ccc(F)cc1)c1cnc2c(CN3CCCC3)cccc2c1 [Example 23, 3-[(4-Fluorophenyl)sulfonyl]-8-(1-pyrrolidinylmethyl)quinoline hydrochloride] | ≤ 10000 | < 100
5 | CC(=O)N1CCN(Cc2cccc3cc(S(=O)(=O)c4ccccc4)cnc23)CC1 [Example 24, 8-[(4-acetyl-1-piperazinyl)methyl]-3-(phenylsulfonyl)quinoline hydrochloride] | ≤ 10000 | ≤ 1000
6 | CC(C)NCc1cccc2cc(S(=O)(=O)c3ccccc3)cnc12 [Example 25, N-{[3-(phenylsulfonyl)-8-quinolinyl]methyl}-2-propanamine hydrochloride] | < 1000 | < 100
7 | CNCc1cccc2cc(S(=O)(=O)c3ccccc3)cnc12 [Example 26, N-methyl-1-[3-(phenylsulfonyl)-8-quinolinyl]methanamine hydrochloride] | ≤ 10000 | < 100
8 | O=S(=O)(c1ccccc1)c1cnc2c(CN3CCCC(F)(F)C3)cccc2c1 [Example 27, 8-[(3,3-Difluoropiperidin-1-yl)methyl]-3-(phenylsulfonyl)quinoline hydrochloride] | < 1000 | > 1000
9 | COC1CCN(Cc2cccc3cc(S(=O)(=O)c4ccccc4)cnc23)CC1 [Example 28, 8-[(4-Methoxypiperidin-1-yl)methyl]-3-(phenylsulfonyl)quinoline hydrochloride] | < 1000 | < 100
10 | CC1CCCCN1Cc1cccc2cc(S(=O)(=O)c3ccccc3)cnc12 (centres unmarked) [Example 29, 8-[(2-Methyl-1-piperidinyl)methyl]-3-(phenylsulfonyl)quinoline hydrochloride] | ≤ 10000 | ≤ 1000
11 | CC1CCCN(Cc2cccc3cc(S(=O)(=O)c4ccccc4)cnc23)C1 (centres unmarked) [Example 30, 8-[(3-Methyl-1-piperidinyl)methyl]-3-(phenylsulfonyl)quinoline hydrochloride] | < 1000 | < 100
12 | O=S(=O)(c1ccccc1)c1cnc2c(CN3CCC4(CC3)OCCO4)cccc2c1 [Example 31, 8-(1,4-Dioxa-8-azaspiro[4.5]dec-8-ylmethyl)-3-(phenylsulfonyl)quinoline hydrochloride] | ≤ 10000 | < 100
13 | O=S1(=O)CCN(Cc2cccc3cc(S(=O)(=O)c4ccccc4)cnc23)CC1 [Example 32, 8-[(1,1-Dioxido-4-thiomorpholinyl)methyl]-3-(phenylsulfonyl)quinoline hydrochloride] | < 1000 | ≤ 1000
